We go through one compound from ChEMBL document CHEMBL1201862, “PubChem BioAssay data set” (2004).

Experiment in all cases: growth of human tumour cells (NCI), 48 h
For test [1], the system named is A549.
The test system of test [2] is COLO 205.
The subject of test [3] is HL-60.
The test system of test [4] is HT-29.
Test [5] deals with LOX IMVI.
Test [6] concerns MCF7.
For test [7], the system named is MDA-MB-435.
For test [8], the system named is Malme-3M.
The subject of test [9] is NCI-H460.
Test [10] relates to OVCAR-5.
Test [11] has as its system PC-3.
Test [12] deals with RPMI-8226.
Test [13] has as its system SF-268.
The subject of test [14] is SF-539.
The test system of test [15] is SK-MEL-28.
The test system of test [16] is SK-MEL-2.
Test [17] concerns SR.
The subject of test [18] is SW-620.
Test [19] relates to TK-10.
Test [20] relates to UACC-62.

Each structure is given as a SMILES string.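 Values below derive from 48-hour exposures of cells grown in 96-well plates, with endpoints linearly interpolated between the two concentrations bracketing the appropriate inhibition level. GI50: concentration for 50% inhibition of growth.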 Calls of active or inactive are those of the source. Cut-off read from the data, not from the text of the source: active = GI50 up to about 1.1 µM and inactive = higher.

Take `CC1(C)OC(C(=O)Nc2cc3c4ccccc4ccc3c3ccccc23)C(C(=O)N2CCCCC2)O1` (stereo not given): the GI50 was 1040 nM (active) in test [1]; 966 nM (active) in test [2]; 1410 nM (inactive) in test [3]; 740 nM (active) in test [4]; 344 nM (active) in [5]; 1160 nM (inactive) in test [6]. For the same compound, the GI50 was 2700 nM (inactive) in [7]; > 100000 nM (inactive) in test [8]; 385 nM (active) in [9]; > 100000 nM (inactive) in test [10]; 3330 nM (inactive) in test [11]; 592 nM (active) in test [12]. Moreover, the GI50 is 2430 nM (inactive) in test [13]; 587 nM (active) in test [14]; > 39400 nM (inactive) in test [15]; 9180 nM (inactive) in test [16]; 96.4 nM (active) in test [17]; 813 nM (active) in [18]. Besides, the GI50 was > 22600 nM (inactive) in test [19] and 1170 nM (inactive) in test [20].
